Results published in BindingDB's records for doi:10.1021/jm101104z (University of Ljubljana, 2011).
pIC50, pKi: −log10 of the molar value.

Key:
[1] = target: 17beta-hydroxysteroid dehydrogenase type 1 (Homo sapiens); assay: Displacement of [3H]estrone human recombinant 17beta-HSD1 expressed in Escherichia coli BL21 (DE3)-RIL by competitive inhibition assay in presence of bacterial homogenate
[2] = target: 17beta-hydroxysteroid dehydrogenase type 1 (Homo sapiens); assay: Displacement of [3H]estrone human recombinant 17beta-HSD1 expressed in Escherichia coli BL21 (DE3)-RIL by scintillation counting in presence of bacterial homogenate
[3] = target: 17beta-hydroxysteroid dehydrogenase type 1 (Homo sapiens); assay: Inhibition of 17beta-HSD1

pKi [1]	pIC50 [2]	pIC50 [3]	SMILES
6.84	6.57		CC(=O)c1cc2ccc(-c3ccc(O)cc3)cc2oc1=O [3-Acetyl-7-(4-hydroxyphenyl)-2H-chromen-2-one]
6.76	6.44		CC(=O)c1cc2ccc(OS(=O)(=O)C(F)(F)F)cc2oc1=O [3-Acetyl-2-oxo-2H-chromen-7-yl trifluoromethanesulfonate]
6.23	5.95		COc1ccc(-c2ccc3cc(C(C)=O)c(=O)oc3c2)cc1 [3-Acetyl-7-(4-methoxyphenyl)-2H-chromen-2-one]
		8.30	COc1cc(-c2nc3sc4c(O)cccc4c3c(=O)n2Cc2ccccc2)c(Br)c(OC)c1OC [3-Benzyl-2-(2-bromo-3,4,5-trimethoxy-phenyl)-8-hydroxy-3H-benzo[4,5]thieno[2,3-d]pyrimidin-4-one]
6.23	5.91		CC(=O)c1cc2ccc(-c3ccc(C)cc3)cc2oc1=O [3-Acetyl-7-para-tolyl-2H-chromen-2-one]
